Converted amounts (≈) assume the structure as drawn.
Key:
[1] = target: T1, cytochrome P450 2C9-isoenzyme (Homo sapiens, UniProt P11712); experiment: Inhibition of CYP-2C9 (hydroxylation of diclofenac, human liver microsomes); type: in vitro ADME; settings: CYP-2C9, human liver microsomes, diclofenac 10 μM, 37° C.
T1 construct: from tissue; host or cells: human liver microsomes
Outline: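 Human liver microsomes (0.1 mg/mL) in 0.1 M TRIS, 5 mM MgCl2, 10 μM diclofenac, 37 °C, duplicate five-point compound series; started with 1 mM NADPH, quenched by cooling and acetonitrile. Hydroxydiclofenac quantified by LC-MS/MS against 13C6 internal standard; IC50 by least-squares fit with slope and background terms.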

[2] = target: T2, cytochrome P450 2C8-isoenzyme (Homo sapiens, UniProt P10632); experiment: Inhibition of CYP-2C8 (deethylation of amodiaquine, human liver microsomes); type: in vitro ADME; settings: CYP-2C8, human liver microsomes, amodiaquine 1 μM, 37° C.
T2 construct: from tissue; host or cells: human liver microsomes
T2 sequence (P10632 1-490): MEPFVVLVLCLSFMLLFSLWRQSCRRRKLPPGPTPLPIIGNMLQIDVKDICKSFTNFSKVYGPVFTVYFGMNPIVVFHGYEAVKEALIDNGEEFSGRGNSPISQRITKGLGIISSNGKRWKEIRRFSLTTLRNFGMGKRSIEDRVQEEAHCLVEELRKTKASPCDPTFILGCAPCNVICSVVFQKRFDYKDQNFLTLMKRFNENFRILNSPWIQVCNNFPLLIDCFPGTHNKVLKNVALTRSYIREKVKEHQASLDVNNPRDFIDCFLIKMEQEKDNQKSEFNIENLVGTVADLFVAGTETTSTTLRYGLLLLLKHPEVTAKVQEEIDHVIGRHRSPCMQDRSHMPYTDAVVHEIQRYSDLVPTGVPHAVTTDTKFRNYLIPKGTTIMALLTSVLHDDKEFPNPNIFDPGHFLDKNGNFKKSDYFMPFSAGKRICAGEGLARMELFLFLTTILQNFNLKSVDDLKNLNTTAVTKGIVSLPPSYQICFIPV
Outline: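 Amodiaquine deethylation (1 μM substrate) was measured at 37 °C in human liver microsomes (0.05 mg/mL), 0.1 M Tris, 5 mM MgCl2, and started with 1 mM NADPH. Desethylamodiaquine was quantified by LC-MS/MS against a d5 internal standard. IC50 came from five concentrations, typically top 10–50 μM with 1:4 dilutions, fitted by least squares to a slope-and-background model.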

[3] = Chemical stability: degradation kinetics in acidic aqueous media (pH ca. 1.2), HPLC recovery; type: physicochemical; settings: pH value of ca. 1.2 (acetonitrile/0.1 M aqueous HCl 2:3), 37° C.
Experimental: Degradation kinetics is used to simulate chemical stability of compounds in the acidic part of the gastro intestinal tract. […] Their application as medical drugs to treat human diseases is therefore less restricted and troublesome.
The chemical stability of the compounds of the invention at pH value of ca. 1.2 is determined as follows:
Compound is dissolved in an HPLC vial either in a mixture of acetonitrile/0.1 M aqueous HCl (2:3; pH ca. 1.2) or in a mixture of acetonitrile/McIlvaine buffer pH 7.4 (2:3) to get a concentration of approximately 0.25 mg/ml. The vial was then transferred into an HPLC autosampler system and maintained at a temperature of 37° C. A first sample is taken and injected immediately into a standard HPLC system with a UV DAD detector. Further samples are injected after 2, 4, 6, 8 and 10 hours. Amount of degraded compound is measured by determining the recovery rate of compound [%] for each injection using an HPLC standard gradient method. Therefore the peak area of the main peak for the first injection (AUt0) is determined and set as 100%. Peak area of the main peak is determined also for the further injections (AUtn, n=2, 4, 6, 8, 10) and expressed as fraction of (AUt0)/(AUtn, n=2, 4, 6, 8, 10) [%].

[4] = Aqueous solubility in buffer vs acetonitrile/water (1/1), LC-UV; type: physicochemical; settings: kinetic from dmso stock, buffer pH 2.2, 24 h shaking, 2.5% DMSO
Outline: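 Aliquots of 10 mM DMSO stock diluted into buffer or acetonitrile/water (1/1), shaken 24 h, filtered and quantified by LC-UV; buffer amount compared with acetonitrile/water amount. Range 0.001-0.125 mg/mL at 2.5% DMSO; ">" marks over 90% dissolved.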

human GPR40 receptor = human GPR40 receptor (Homo sapiens, UniProt O14842); experiment: IP1 accumulation measurements using the IPOne assay system (1321N1 cells stably expressing human GPR40 receptor); type: cell-based; settings: 1321N1 cells expressing human GPR40, 1 h stimulation at 37° C.
Outline: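 Cells were stimulated with compounds for 1 h at 37 °C in HEPES-buffered stimulation buffer containing 50 mM LiCl, pH 7.4. IP1 was then detected by HTRF (IP1-d2/anti-IP1 cryptate, 1 h at room temperature), and 665/615 ratios were converted using an IP1 reference curve, with pEC50 obtained by variable-slope sigmoidal fitting.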

T1 sequence (P11712 whole entry): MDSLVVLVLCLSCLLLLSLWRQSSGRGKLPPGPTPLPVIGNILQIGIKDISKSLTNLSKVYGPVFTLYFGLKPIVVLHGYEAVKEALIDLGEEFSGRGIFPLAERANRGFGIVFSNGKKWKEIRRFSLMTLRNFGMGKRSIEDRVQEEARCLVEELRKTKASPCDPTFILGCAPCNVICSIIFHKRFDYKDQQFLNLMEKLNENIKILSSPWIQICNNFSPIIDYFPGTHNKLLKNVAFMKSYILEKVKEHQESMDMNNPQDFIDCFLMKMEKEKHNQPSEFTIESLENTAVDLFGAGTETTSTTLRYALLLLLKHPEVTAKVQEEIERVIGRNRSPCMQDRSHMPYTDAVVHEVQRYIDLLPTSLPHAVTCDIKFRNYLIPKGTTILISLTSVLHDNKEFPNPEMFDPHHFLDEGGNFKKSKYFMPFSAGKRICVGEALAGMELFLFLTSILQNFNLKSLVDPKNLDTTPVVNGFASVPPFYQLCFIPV
Chain of human GPR40 receptor (O14842 whole entry): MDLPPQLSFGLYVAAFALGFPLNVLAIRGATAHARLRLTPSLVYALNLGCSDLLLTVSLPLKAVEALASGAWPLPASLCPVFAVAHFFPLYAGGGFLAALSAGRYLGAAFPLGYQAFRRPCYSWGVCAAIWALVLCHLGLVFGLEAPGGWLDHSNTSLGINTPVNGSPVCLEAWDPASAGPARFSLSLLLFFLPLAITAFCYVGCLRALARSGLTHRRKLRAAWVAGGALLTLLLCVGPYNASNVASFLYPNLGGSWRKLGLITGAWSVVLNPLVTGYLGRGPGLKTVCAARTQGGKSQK

Row | Compound | IC50 [1] | IC50 [2] | Amount of degradation after 2 h [3] | solubility at 24 h [4] | EC50 (human GPR40 receptor)
1 | COc1cc(C)c(-c2ccc(F)c3c2CC[C@H]3Nc2ccc([C@H]3C[C@@H]3C(=O)O)cn2)c(C)c1 [Example 19] | 35 µM | 26 µM | <1.0% | 67 µg/mL (≈ 150 µM) | 0.016 µM
2 | Cc1cc(O)cc(C)c1-c1ccc(F)c2c1CC[C@H]2Nc1ccc([C@H]2C[C@@H]2C(=O)O)cn1 [Example 41] | > 50 µM | 34 µM | <1.5% | 103 µg/mL (≈ 238 µM) | 0.033 µM
3 | N#CC1(c2ccccc2-c2ccc(F)c3c2CC[C@H]3Nc2ccc([C@H]3C[C@@H]3C(=O)O)cn2)CC1 [Example 46] | 9 µM | 32 µM | <0.5% | 85 µg/mL (≈ 187 µM) | 0.629 µM
4 | Cc1cc(OCCC(C)(C)O)cc(C)c1-c1cccc2c1CC[C@H]2Nc1ccc([C@H]2C[C@@H]2C(=O)O)cn1 [Example 2, (1S,2S)-2-(6-{(R)-4-[4-(3-Hydroxy-3-methyl-butoxy)-2,6-dimethyl-phenyl]-indan-1-ylamino}-pyridin-3-yl)-cyclopropanecarboxylic acid] | > 50 µM | 30 µM | <0.5% | 83 µg/mL (≈ 166 µM) | 0.011 µM
5 | Cc1cc(-c2ccnn2C)cc(C)c1-c1ccc(F)c2c1CC[C@H]2Nc1ccc([C@H]2C[C@@H]2C(=O)O)cn1 [Example 31] | 27 µM | 9 µM | <0.5% | 93 µg/mL (≈ 187 µM) | 0.031 µM
6 | Cc1cc(C#N)cc(C)c1-c1ccc(F)c2c1CC[C@H]2Nc1ccc([C@H]2C[C@@H]2C(=O)O)cn1 [Example 20] | 33 µM | 24 µM | <0.5% | 66 µg/mL (≈ 149 µM) | 0.018 µM

From patent US9617251B2, “Indanylaminopyridylcyclopropanecarboxylic acids, pharmaceutical compositions and uses thereof” (BOEHRINGER INGELHEIM INTERNATIONAL GMBH, priority 2015, dated 2017)
